Results from patent US4248887A, “Antibacterial compounds, processes for their preparation and compositions containing them” (priority 1978, dated 1981).
≈ marks a conversion by molar mass, not a printed value. Like-named read-outs stand apart in the source and are kept apart here.

Legend:
M. bovis ATCC 25025 = experiment: microbe, parasite or virus in culture; assay type: cell-based; details: ATCC25025
N. catarrhalis 1502 = experiment: MIC by serial dilution in nutrient agar (human bacteria); details: Neisseria
Strep. uberis SPU1 = experiment: MIC against veterinary bacteria; details: Streptococcus uberis
H. influenzae Q1 = experiment: MIC by serial dilution in nutrient agar (human bacteria); details: Haemophilus influenzae
[1] = system: M. arthritidis ATCC 14124; experiment: Anti-mycoplasma MIC; assay type: cell-based
Staph. aureus Oxford = experiment: MIC by serial dilution in nutrient agar (human bacteria); details: Staphylococcus aureus
M. gallisepticum S6 = experiment: Anti-mycoplasma MIC; assay type: cell-based; details: Mycoplasmoides gallisepticum
M. pneumoniae ATCC 15492 = experiment: Anti-mycoplasma MIC; assay type: cell-based; details: Mycoplasmoides pneumoniae, ATCC15492, M. pneumoniae ATCC 15492
Bord. bronchiseptica BO9 = experiment: MIC against veterinary bacteria; details: Bordetella bronchiseptica
[2] = system: Staph. aureus B4 (pen resistant); experiment: MIC against veterinary bacteria; details: Staphylococcus aureus
Bord. bronchiseptica BO8 = experiment: MIC against veterinary bacteria; details: Bordetella bronchiseptica
Strep. pyogenes B 2788 = experiment: MIC by serial dilution in nutrient agar (human bacteria); details: Streptococcus pyogenes, B2788
[3] = system: M. bovigenitalium ATCC 14173; experiment: Anti-mycoplasma MIC; assay type: cell-based
Past. multocida 1633 = experiment: MIC by serial dilution in nutrient agar (human bacteria); details: Pasteurella multocida
M. suipneumoniae Str. 11 = experiment: Anti-mycoplasma MIC; assay type: cell-based; details: Mesomycoplasma hyopneumoniae, STR.11
Past. multocida PA1 = experiment: MIC against veterinary bacteria; details: Pasteurella multocida
M. synoviae ATCC 25204 = experiment: Anti-mycoplasma MIC; assay type: cell-based; details: Mycoplasmopsis synoviae, ATCC25204
[4] = system: M. hyosynoviae ATCC 25591; experiment: Anti-mycoplasma MIC; assay type: cell-based
M. fermentans MWKL4 = experiment: Anti-mycoplasma MIC; assay type: cell-based; details: Mycoplasmopsis fermentans
M. pulmonis JB = experiment: Anti-mycoplasma MIC; assay type: cell-based; details: Mycoplasmopsis pulmonis
Strep. agalactiae SPA1 = experiment: MIC against veterinary bacteria; details: Streptococcus agalactiae
B. subtilis = experiment: MIC by serial dilution in nutrient agar (human bacteria); details: Bacillus subtilis
[5] = system: M. alkalescens NCTC 10135; experiment: Anti-mycoplasma MIC; assay type: cell-based
M. pneumoniae 427a = experiment: Anti-mycoplasma MIC; assay type: cell-based; details: Mycoplasmoides pneumoniae
Past. haemolytica PA5 = experiment: MIC against veterinary bacteria; details: Mannheimia haemolytica
M. hyorhinis ATCC 23234 = experiment: Anti-mycoplasma MIC; assay type: cell-based; details: Mesomycoplasma hyorhinis, ATCC23234
[6] = system: Staph. aureus 152 (pen sensitive); experiment: MIC against veterinary bacteria; details: Staphylococcus aureus
Strep. dysgalactiae SPD1 = experiment: MIC against veterinary bacteria; details: Streptococcus dysgalactiae
H. influenzae Wy21 = experiment: MIC by serial dilution in nutrient agar (human bacteria); details: Haemophilus influenzae
M. dispar NCTC 10125 = experiment: Anti-mycoplasma MIC; assay type: cell-based
Strep. pyogenes A 64/848 = experiment: MIC by serial dilution in nutrient agar (human bacteria); details: Streptococcus pyogenes, A64/848
M. dispar H225 = experiment: Anti-mycoplasma MIC; assay type: cell-based
Strep. pyogenes C 2761 = experiment: MIC by serial dilution in nutrient agar (human bacteria); details: Streptococcus pyogenes, C2761
Strep. pneumoniae CN33 = experiment: as above; details: Streptococcus pneumoniae
M. bovis NCTC 10131 = experiment: microbe, parasite or virus in culture; assay type: cell-based; details: NCTC10131
[7] = system: M. suipneumoniae J2206/183b; experiment: Anti-mycoplasma MIC; assay type: cell-based; details: Mesomycoplasma hyopneumoniae, J2206/183B
Staph. aureus Russell = experiment: MIC by serial dilution in nutrient agar (human bacteria); details: Staphylococcus aureus
Past. multocida PA2 = experiment: MIC against veterinary bacteria; details: Pasteurella multocida
Staph. aureus 1517 = experiment: MIC by serial dilution in nutrient agar (human bacteria); assay type: cell-based; details: Staphylococcus aureus
[8] = Agar (serial dilution in Friis' agar), read-out: MIC
[9] = Broth (Friis' broth, microtiter method), read-out: MIC
[10] = Agar (serial dilution in Friis' agar)
[11] = Broth (Friis' broth, microtiter method)

SMILES: C/C(=C\C(=O)OCC(C)C)CC1OCC(C/C=C/C(C)C(C)O)C(O)C1O (stereo not drawn) [Isobutyl, Isobutyl Monate C]
- MIC (M. bovis ATCC 25025): 0.156 µg/mL (≈ 0.406 µM)
- MIC (N. catarrhalis 1502): 1 µg/mL (≈ 2.6 µM)
- MIC (Strep. uberis SPU1): 1.25 µg/mL (≈ 3.25 µM)
- MIC (H. influenzae Q1): 1 µg/mL (≈ 2.6 µM)
- MIC ([1]; M. arthritidis ATCC 14124, Agar (serial dilution in Friis' agar), read-out: MIC): 5 µg/mL (≈ 13 µM)
- MIC (Staph. aureus Oxford): 0.5 µg/mL (≈ 1.3 µM)
- MIC (M. gallisepticum S6; M. gallisepticum S6, Agar (serial dilution in Friis' agar), read-out: MIC): > 10 µg/mL
- MIC (M. pneumoniae ATCC 15492; [8]): 10 µg/mL (≈ 26 µM)
- MIC (M. pneumoniae ATCC 15492; [9]): 2.5 µg/mL (≈ 6.5 µM)
- MIC (Bord. bronchiseptica BO9): 40 µg/mL (≈ 104 µM)
- MIC [2]: 1.25 µg/mL (≈ 3.25 µM)
- MIC (Bord. bronchiseptica BO8): > 80 µg/mL
- MIC (Strep. pyogenes B 2788): 25 µg/mL (≈ 65 µM)
- MIC ([3]; M. bovigenitalium ATCC 14173, Agar (serial dilution in Friis' agar), read-out: MIC): 0.078 µg/mL (≈ 0.203 µM)
- MIC (Past. multocida 1633): 5 µg/mL (≈ 13 µM)
- MIC (M. suipneumoniae Str. 11): 1.25 µg/mL (≈ 3.25 µM)
- MIC (Past. multocida PA1): 10 µg/mL (≈ 26 µM)
- MIC (M. synoviae ATCC 25204; M. synoviae ATCC 25204, Agar (serial dilution in Friis' agar), read-out: MIC): 0.078 µg/mL (≈ 0.203 µM)
- MIC ([4]; M. hyosynoviae ATCC 25591, Agar (serial dilution in Friis' agar), read-out: MIC): 0.625 µg/mL (≈ 1.63 µM)
- MIC (M. fermentans MWKL4; [8]): 0.312 µg/mL (≈ 0.811 µM)
- MIC (M. fermentans MWKL4; [9]): 0.039 µg/mL (≈ 0.101 µM)
- MIC (M. pulmonis JB; [8]): 0.078 µg/mL (≈ 0.203 µM)
- MIC (M. pulmonis JB; [9]): < 0.02 µg/mL
- MIC (Strep. agalactiae SPA1): 10 µg/mL (≈ 26 µM)
- MIC (B. subtilis): 1 µg/mL (≈ 2.6 µM)
- MIC [5]: 0.156 µg/mL (≈ 0.406 µM)
- MIC (M. pneumoniae 427a; [8]): 10 µg/mL (≈ 26 µM)
- MIC (M. pneumoniae 427a; [9]): 1.25 µg/mL (≈ 3.25 µM)
- MIC (Past. haemolytica PA5): 80 µg/mL (≈ 208 µM)
- MIC (M. hyorhinis ATCC 23234; M. hyorhinis ATCC 23234, Agar (serial dilution in Friis' agar), read-out: MIC): 2.5 µg/mL (≈ 6.5 µM)
- MIC [6]: 1.25 µg/mL (≈ 3.25 µM)
- MIC (Strep. dysgalactiae SPD1): 5 µg/mL (≈ 13 µM)
- MIC (H. influenzae Wy21): 1 µg/mL (≈ 2.6 µM)
- MIC (M. dispar NCTC 10125; M. dispar NCTC 10125, Broth (Friis' broth, microtiter method), read-out: MIC): 0.312 µg/mL (≈ 0.811 µM)
- MIC (Strep. pyogenes A 64/848): 10 µg/mL (≈ 26 µM)
- MIC (M. dispar H225; M. dispar H225, Broth (Friis' broth, microtiter method), read-out: MIC): 0.312 µg/mL (≈ 0.811 µM)
- MIC (Strep. pyogenes C 2761): 25 µg/mL (≈ 65 µM)
- MIC (Strep. pneumoniae CN33): 5 µg/mL (≈ 13 µM)
- MIC (M. bovis NCTC 10131): 0.156 µg/mL (≈ 0.406 µM)
- MIC [7]: 1.25 µg/mL (≈ 3.25 µM)
- MIC (Staph. aureus Russell): 1 µg/mL (≈ 2.6 µM)
- MIC (Past. multocida PA2): 10 µg/mL (≈ 26 µM)

SMILES: COC(=O)/C=C(\C)CC1OCC(C/C=C/C(C)C(C)O)C(O)C1O (stereo not drawn) [Methyl, Methyl Monate C]
- MIC (M. bovis ATCC 25025): 0.312 µg/mL (≈ 0.911 µM)
- MIC (N. catarrhalis 1502): 1 µg/mL (≈ 2.92 µM)
- MIC (H. influenzae Q1): 1 µg/mL (≈ 2.92 µM)
- MIC [1]: > 10 µg/mL
- MIC (Staph. aureus 1517): 2.5 µg/mL (≈ 7.3 µM)
- MIC (Staph. aureus Oxford): 1 µg/mL (≈ 2.92 µM)
- MIC (M. gallisepticum S6; S6): > 10 µg/mL
- MIC (M. pneumoniae ATCC 15492; [10]): > 10 µg/mL
- MIC (M. pneumoniae ATCC 15492; [11]): 10 µg/mL (≈ 29.2 µM)
- MIC (Strep. pyogenes B 2788): 25 µg/mL (≈ 73 µM)
- MIC [3]: 0.156 µg/mL (≈ 0.456 µM)
- MIC (Past. multocida 1633): 10 µg/mL (≈ 29.2 µM)
- MIC (M. suipneumoniae Str. 11): 2.5 µg/mL (≈ 7.3 µM)
- MIC (M. synoviae ATCC 25204): 0.156 µg/mL (≈ 0.456 µM)
- MIC [4]: 5 µg/mL (≈ 14.6 µM)
- MIC (M. fermentans MWKL4; [10]): 0.625 µg/mL (≈ 1.83 µM)
- MIC (M. fermentans MWKL4; [11]): 0.312 µg/mL (≈ 0.911 µM)
- MIC (M. pulmonis JB; [10]): 0.312 µg/mL (≈ 0.911 µM)
- MIC (M. pulmonis JB; [11]): 0.156 µg/mL (≈ 0.456 µM)
- MIC (B. subtilis): 2.5 µg/mL (≈ 7.3 µM)
- MIC [5]: 0.156 µg/mL (≈ 0.456 µM)
- MIC (M. pneumoniae 427a; [10]): > 10 µg/mL
- MIC (M. pneumoniae 427a; [11]): > 10 µg/mL
- MIC (M. hyorhinis ATCC 23234): 1.25 µg/mL (≈ 3.65 µM)
- MIC (H. influenzae Wy21): 2.5 µg/mL (≈ 7.3 µM)
- MIC (M. dispar NCTC 10125): 0.312 µg/mL (≈ 0.911 µM)
- MIC (Strep. pyogenes A 64/848): > 100 µg/mL
- MIC (M. dispar H225): 0.625 µg/mL (≈ 1.83 µM)
- MIC (Strep. pyogenes C 2761): > 100 µg/mL
- MIC (Strep. pneumoniae CN33): 25 µg/mL (≈ 73 µM)
- MIC (M. bovis NCTC 10131): 0.312 µg/mL (≈ 0.911 µM)
- MIC [7]: 2.5 µg/mL (≈ 7.3 µM)
- MIC (Staph. aureus Russell): 2.5 µg/mL (≈ 7.3 µM)
